Laboratory results taken from US20240180800A1, “Oral Care Compositions Containing Stannous Ion Source” (Colgate-Palmolive Company, priority 2022, published 2024).

How the values were obtained:
Assay type in all cases: physicochemical
[1] = FTIR of SnF2-TSPP solution with antioxidant upon aging at 60° C.
Protocol: (§1) The effect of antioxidants on the stannous stability in the presence of tetrasodium pyrophosphate (TSPP) was examined. Samples of Sn(II) were prepared by dissolving TSPP and SnF2 in water with the final concentration of SnF2 equal to 2 wt. %. Antioxidant (butylated hydroxytoluene (BHT), butylated hydroxyanisole (BHA), or sodium ascorbyl phosphate (SAP)) was added to the samples with the molar ratio of SnF2:TSPP:antioxidant equal to 1:1:0.3. The pH of the solutions was adjusted with NaOH to pH 7. The solutions were not fully clear due to the high concentration of SnF2 and limited solubility of certain antioxidants. Some amount of the precipitate/undissolved material was evident in the vials.
Fourier transform infrared spectroscopy (FTIR): Infrared spectra were collected using a Bruker Vertex 70 FTIR spectrometer (Bruker Optics, Billerica, MA) equipped with a GladiATR diamond ATR accessory (Pike technologies, Madison, WI). The spectral range was […] and a resolution of 4 cm^−1 was used. All measurements were carried out at room temperature. The absorption spectrum of solution containing SnF2 and TSPP (herein after referred to as SnF2-TSPP) in the 850-1240 cm^−1 region at different time points: fresh, 1 week and 2 weeks aged at 60° C. was examined. […] The transformation of the complex was manifested in the peak shifts and intensity changes of phosphate bands. […]

[2] = Iodine titration of Sn(II) in SnF2-TSPP solution with antioxidant upon aging at 60° C.; settings: for Sn(II) %: after 2 weeks of aging at 60° C.
Protocol: as §1
Iodine titration: The stability of Sn (II) was further examined by iodine titration assay. Titration measurements were performed through indirect titration. 2 M citric acid solution was added to the samples in excess and 0.1 N Iodine was added until the solutions turned light brown. The samples were covered with parafilm and aluminum foil and left mixing in the dark for 2 hours. Then, titration with 0.1 N sodium thiosulfate standard was performed using a 25 mL Titrette Bottletop Burette (BrandTech Scientific, Inc., Essex, CT, USA) until the solutions turned clear. Sn(II) concentration was calculated based on the amount of sodium thiosulfate and iodine used in the reaction. The amount of Sn(II) present in the SnF2-TSPP solution at different time points: fresh, 1 week and 2 weeks aged at 60° C. with and without the antioxidant (SAP, BHA, or BHT) was measured. The result is in good agreement with the FTIR result discussed above. The amount of Sn(II) was highest in the sample with SAP after 2 weeks of 60° C. aging.
(§2) In order to identify the optimal concentration of antioxidants (SAP and sodium ascorbate) that can increase stannous stability in aqueous solutions, samples of Sn(II) with TSPP and various concentrations of SAP or sodium ascorbate were tested for the stability of Sn(II). Samples of Sn(II) were prepared by dissolving TSPP and SnF2 in water with the final concentration of SnF2 equal to 2 wt %. Antioxidant (SAP or sodium ascorbate) was added to the samples with the molar ratio of SnF2:TSPP:antioxidant equal to 1:1:x, where x was between 0.05 and 0.3. The pH of the solutions was adjusted with NaOH to pH=7.
Iodine titration: The stability of Sn (II) was further examined by iodine titration assay. Titration measurements were performed as described in Example 1.

[3] = 119Sn NMR relative amount of Sn(II) in SnF2-TSPP solution with antioxidant upon aging at 60° C.; settings: for Sn(II) left relative to fresh sample: SnF2:TSPP:antioxidant 1:1:0.3, pH 7, after 2 weeks of aging at 60° C.; for Sn(II) content relative to fresh sample: pH 7, after 2 weeks of aging at 60° C.
Protocol: as §1
Nuclear Magnetic Resonance (NMR): The stability of Sn (II) was further examined by Nuclear Magnetic Resonance (NMR). NMR measurements were performed on samples in the presence of 10% deuterium oxide (D20). All NMR spectra were acquired on a Bruker Avance spectrometer (Bruker-Biospin, Billerica, MA, USA) with a 5 mm liquid nitrogen cryogenic probe operating at 202 MHz for ^31P, and 186.5 MHz ^119Sn at 25° C. ^119Sn and ^31P NMR spectra were acquired on the samples of SnF2-TSPP with three antioxidants: SAP, BHA, or BHT. FIG. 3-5 show ^119Sn and ^31P NMR spectra of the samples upon aging. In the ^119Sn NMR spectra, the peak positioned at around −630 ppm corresponds to Sn(II) in solution at neutral pH. Once Sn(II) was oxidized to Sn(IV) upon aging, the Sn(II) peak intensity decreased and small Sn(IV) spikes appeared between −680 and −750 ppm. The relative amounts of Sn(II) compared to fresh sample were calculated by integrating the peak corresponding to Sn(II) in ^119Sn NMR spectra. The capacity of three […] to stabilize Sn(II) was compared by measuring the Sn(II) content in the samples. About 80% of Sn(II) was left in the samples in the presence of BHA and SAP after 2 weeks of aging at 60° C. BHT sample had 70% Sn(II) remaining after 2 weeks of aging. […] In the ^31P NMR spectra, the peak positioned at −8 ppm corresponds to TSPP.
as §2
Nuclear Magnetic Resonance (NMR): The stability of Sn (II) was further examined by Nuclear Magnetic Resonance (NMR). NMR measurements were performed as described in Example 1. ^119Sn and ^31P NMR spectra were acquired on the samples of SnF2-TSPP with SAP or sodium ascorbate at various SAP/Sn molar ratios, specifically between 0.05 and 0.3, upon aging at 60° C. FIGS. 9 and 10 show ^119Sn and ^31P NMR spectra of the samples upon aging. In the ^119Sn NMR spectra, the peak positioned at around −630 ppm corresponds to Sn(II) in solution at neutral pH. Once Sn(II) was oxidized to Sn(IV), the Sn(II) peak intensity decreased and small Sn(IV) spikes appeared between −680 and −750 ppm. […] The relative amounts of Sn(II) compared to fresh sample were quantified based on the Sn(II) NMR peak integral (FIG. 11A).

[4] = Head-space O2 consumption (differential pressure) during Sn(II) oxidation; settings: 29 mM SnF2, 29 mM TSPP, SAP/Sn molar ratios 0.05 and 0.3, 25° C., about 6.5 hours, pH about 6.5
Protocol: Head-space O2 consumption: Stannous stability in presence of small amounts of SAP was further examined by measuring the rate of oxygen consumption during Sn(II) oxidation process. […] SnF2 was added last as a powder, and the flask was immediately scaled.

COc1ccc(O)c(C(C)(C)C)c1 [BHA, butylated hydroxyanisole]
change of phosphate vibrational bands / stability of stannous-pyrophosphate complex ([1]; SnF2:TSPP:antioxidant 1:1:0.3, pH 7, aged 2 weeks at 60° C.): improved the stability of stannous-pyrophosphate complex but were less effective than SAP | amount of Sn(II) remaining ([2]; SnF2:TSPP:antioxidant 1:1:0.3, pH 7, after 2 weeks of 60° C. aging, compared to SnF2-TSPP solution alone): positive effect on Sn(II) stability | Sn(II) left relative to fresh sample [3]: About 80%

Cc1cc(C(C)(C)C)c(O)c(C(C)(C)C)c1 [BHT, butylated hydroxytoluene]
amount of Sn(II) remaining ([2]; buffer, 336 h, pH 7): positive effect on Sn(II) stability | Sn(II) left relative to fresh sample [3]: 70%

O=C1O[C@H]([C@@H](O)CO)C([O-])=C1OP(=O)([O-])[O-].[Na+].[Na+].[Na+] [SAP, sodium ascorbyl phosphate]
amount of Sn(II) remaining ([2]; buffer, 336 h, pH 7): highest | Sn(II) left relative to fresh sample [3]: About 80% | Sn(II) content relative to fresh sample ([3]; higher SAP/Sn ratio (0.2, 0.3)): 72% | Sn(II) content relative to fresh sample ([3]; lower mole ratio of SAP/Sn (0.05, 0.1)): about 90% | head-space differential pressure change (O2 consumption) [4]: no significant pressure drop

O=C1O[C@H]([C@@H](O)CO)C([O-])=C1O.[Na+] [sodium ascorbate]
stability of stannous-pyrophosphate complex ([1]; antioxidant/Sn molar ratio 0.05 to 0.3, pH 7, fresh, 1 week and 2 weeks at 60° C.): increased the stability of the stannous-pyrophosphate complex | Sn(II) % ([2]; higher ascorbate/Sn ratio (0.2, 0.3)): 70-75% | Sn(II) % ([2]; lower ascorbate/Sn ratio (0.05, 0.1)): about 80%
